Measurements reported in US20170022171A1, “2,5-DISUBSTITUTED CYCLOPENTANECARBOXYLIC ACIDS AND THEIR USE” (Bayer Pharma Aktiengesellschaft, priority 2014, published 2017).

How the values were obtained:
Type in all cases: biochemical
[1] = biological target: T1, human macrophage elastase (HME/hMMP-12) (Homo sapiens, UniProt P39900); assay: In vitro HME inhibition test (standard or high-sensitivity); details: in some cases mean values
T1 construct: 0.5 nM HME; purchased R&D Systems 917-MP
Procedure, shortened: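 Fluorogenic assay: 0.5 nM autoactivated HME with 5 µM Mca-Pro-Leu-Gly-Leu-Glu-Glu-Ala-Dap(Dnp)-NH2 in HEPES pH 7.4 buffer (NaCl, CaCl2, ZnCl2, EDTA, Brij), 2 h at 37 °C; ex 323/em 393 nm. IC50 from fluorescence versus concentration. High-sensitivity format: ~0.05 nM enzyme, ~16 h incubation.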

MMP-3 = biological target: T2, MMP-3 (Homo sapiens, UniProt P08254); assay: In vitro MMP-3 inhibition test
T2 construct: purchased R&D Systems 513-MP
Procedure, shortened: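 APMA-activated recombinant MMP-3 (e.g. 2 nM final) preincubated with compound in 50 mM Tris/HCl pH 7.5, 10 mM CaCl2, 150 mM NaCl, 0.05% Brij-35; quenched Mca/Dnp peptide substrate (e.g. 10 μM) started the reaction. Fluorescence (ex 320/em 410 nm) followed e.g. 120 min at 32° C; IC50 at 50% signal.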

MMP-10 = biological target: T3, MMP-10 (Homo sapiens, UniProt P09238); assay: In vitro MMP-10 inhibition test
T3 construct: purchased R&D Systems 910-MP
Procedure, shortened: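 APMA-activated recombinant MMP-10 (final e.g. 2 nM) with quenched Mca-Arg-Pro-Lys-Pro-Val-Glu-Nval-Trp-Arg-Lys(Dnp)-NH2 substrate (final e.g. 10 μM) in 50 mM Tris/HCl pH 7.5, 10 mM CaCl2, 150 mM NaCl, 0.05% Brij-35. Fluorescence (ex 320/em 410 nm) followed e.g. 120 min at 32 °C. IC50 at 50% signal.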

MMP-13 = biological target: T4, MMP-13 (Homo sapiens, UniProt P45452); assay: In vitro MMP-13 inhibition test
T4 construct: purchased R&D Systems 511-MP
Procedure, shortened: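 APMA-activated recombinant MMP-13 (e.g. 0.1 nM final) in 50 mM Tris/HCl pH 7.5, 10 mM CaCl2, 150 mM NaCl, 0.05% Brij-35 with Mca-PLGL-Dpa(Dnp)-AR-NH2 substrate (e.g. 10 μM final). Fluorescence (ex 320/em 410 nm) followed e.g. 120 min at 32 °C; IC50 at 50% signal.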

T2 sequence (P08254 100-477): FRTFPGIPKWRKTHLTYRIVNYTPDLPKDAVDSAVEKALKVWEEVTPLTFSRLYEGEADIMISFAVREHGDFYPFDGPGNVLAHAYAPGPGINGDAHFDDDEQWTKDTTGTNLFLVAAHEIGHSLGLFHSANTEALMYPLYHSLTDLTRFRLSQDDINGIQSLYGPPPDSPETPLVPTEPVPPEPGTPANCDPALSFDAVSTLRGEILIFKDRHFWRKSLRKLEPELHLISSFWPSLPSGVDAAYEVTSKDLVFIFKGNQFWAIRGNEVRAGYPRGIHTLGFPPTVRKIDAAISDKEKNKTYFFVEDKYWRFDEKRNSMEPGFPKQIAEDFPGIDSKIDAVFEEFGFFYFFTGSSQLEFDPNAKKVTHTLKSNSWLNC
T3 sequence (P09238 99-476): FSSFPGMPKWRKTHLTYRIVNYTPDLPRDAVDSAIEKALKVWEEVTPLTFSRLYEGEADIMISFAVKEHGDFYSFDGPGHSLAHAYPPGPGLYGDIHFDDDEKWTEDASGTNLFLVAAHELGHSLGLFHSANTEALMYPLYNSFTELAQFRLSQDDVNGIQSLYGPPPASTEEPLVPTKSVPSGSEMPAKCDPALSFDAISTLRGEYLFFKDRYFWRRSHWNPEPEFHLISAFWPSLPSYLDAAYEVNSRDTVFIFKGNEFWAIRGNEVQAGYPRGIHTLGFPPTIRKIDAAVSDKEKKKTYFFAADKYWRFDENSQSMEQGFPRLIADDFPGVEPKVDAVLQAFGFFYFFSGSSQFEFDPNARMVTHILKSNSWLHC
T1 sequence (P39900 106-470): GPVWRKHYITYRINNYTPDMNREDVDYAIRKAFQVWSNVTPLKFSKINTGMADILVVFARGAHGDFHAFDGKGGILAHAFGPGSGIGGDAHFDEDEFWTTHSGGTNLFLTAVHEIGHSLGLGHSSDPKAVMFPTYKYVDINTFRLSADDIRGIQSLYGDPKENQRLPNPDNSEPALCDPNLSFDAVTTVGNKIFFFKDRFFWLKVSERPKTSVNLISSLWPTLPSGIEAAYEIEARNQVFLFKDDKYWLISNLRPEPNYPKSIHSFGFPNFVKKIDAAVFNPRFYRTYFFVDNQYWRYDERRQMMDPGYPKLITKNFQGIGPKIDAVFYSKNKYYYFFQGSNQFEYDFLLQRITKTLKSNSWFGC

Molecule	IC50 [1] [nM]	IC50 (MMP-3) [nM]	IC50 (MMP-10) [nM]	IC50 (MMP-13) [nM]
(+)-(1RS,2RS,5SR)-2-{4-[(3,4-Dichlorobenzyl)oxy]benzoyl}-5-{[4-oxo-6-(trifluoromethyl)-1,2,3-benzotriazin-3(4H)-yl]methyl}cyclopentanecarboxylic acid [Example 28]	0.036	250	130	620
(+)-(1RS,2RS,5SR)-2-{4-[Cyclohexyl)methyl)sulphanyl]benzoyl}-5-{[4-oxo-6-(trifluoromethyl)-1,2,3-benzotriazin-3(4H)-yl]methyl}cyclopentanecarboxylic acid [Example 86]	0.018	1300	160	6600
(+)-(1RS,2SR,5RS)-2-{[4-Oxo-6-(trifluoromethyl)-1,2,3-benzotriazin-3(4H)-yl]methyl}-5-{4-[(2-phenylethy)sulphanyl]benzoyl}cyclopentanecarboxylic acid [Example 83]	0.11	450	120	2800

The next lines start with the values.

IC50 [1] [nM]	IC50 (MMP-3) [nM]	IC50 (MMP-10) [nM]	IC50 (MMP-13) [nM]	Molecule
0.078	410	93	300	CCCCCCOc1ccc(C(=O)[C@@H]2CC[C@H](Cn3nnc4ccc(C)cc4c3=O)[C@H]2C(=O)O)cc1 (single isomer, unassigned) [Example 121, (+)-(1RS,2RS,5SR)-2-[4-(Hexyloxy)benzoyl]-5-[(6-methyl-4-oxo-1,2,3-benzotriazin-3(4H)-yl)methyl]cyclopentanecarboxylic acid]
0.012	280	41	190	COC(=O)Nc1cccc(COc2ccc(C(=O)[C@@H]3CC[C@H](Cn4nnc5ccc(C(F)(F)F)cc5c4=O)[C@H]3C(=O)O)cc2)c1 (stereo in doubt) [Example 31, (+)-(1RS,2RS,5SR)-2-[4-({3-[(Methoxycarbonyl)amino]benzyl}oxy)benzoyl]-5-{[4-oxo-6-(trifluoromethyl)-1,2,3-benzotriazin-3(4H)-yl]methyl}cyclopentanecarboxylic acid]
